Measurements from publication PMC7865555, “Mechanistic Studies of the Antiallergic Activity of Phyllanthus amarus Schum. & Thonn. and Its Compounds” (Molecules, 2021).
Where “and” joins values, the source holds several entries; their conditions need not be identical. Equal entries are not always repeated. Structures can show the parent of a compound that is named as a salt.

How the values were obtained:
[1] = Cell viability (MTT) assay on RBL-2H3 cells; format: cell-based, rat; conditions: rat, RBL-2H3 cells; for viability at 4 h, 2.5 µg/mL: RBL-2H3, 2.5 µg/mL; for viability at 4 h, 5 µg/mL: RBL-2H3, 5 µg/mL; for viability at 4 h, 10 µg/mL: RBL-2H3, 10 µg/mL; for viability at 4 h, 25 µg/mL: RBL-2H3, 25 µg/mL; for viability at 4 h, 50 µg/mL: RBL-2H3, 50 µg/mL; for viability at 4 h, 100 µg/mL: RBL-2H3, 100 µg/mL
Method: (§1) RBL-2H3 cells were obtained from the Japanese Collection of Research Bioresources (JCRB) cell bank with a cell number of JCRB0023. The cells were cultured in enriched media (MEM containing 10% FBS and 1% penicillin-streptomycin (10 000 U/mL)). Once the cells reaching passage 3 (P3) with 80% confluency and showing stable growth and morphology, the cells were used for the bioassays. Only cells from passage 3 (P3) to passage 5 (P5) were used for the bioassays’ studies.
(§2) The cell viability assay was conducted as reported by Shahari, et al.. RBL-2H3 cells were seeded in 96-well plates in 100 µL at the concentration of 5 × 10^5 /mL. […] The cells were incubated for 4 h. 10 µL of MTT (5 mg/mL in PBS buffer) was added to the mixture and was incubated for 4 h at 37 °C. Upon the appearance of purple formazan crystal, the media was removed and 100 µL of DMSO was added to the well plates to dissolve the crystal. After 10 min of shaking the well plates on a shaker, the absorbance was immediately measured using a microplate reader at 570 nm.

[2] = test system: RBL-2H3 cell line; assay: Cell viability (MTT) assay on RBL-2H3 cells; format: cell-based, rat; conditions: for Toxicity towards the cell (in words): RBL-2H3, all concentrations tested; for Concentration safe on the cell: RBL-2H3, maintaining approximately 70% cell viability
Method: as §1, §2

[3] = test system: beta-hexosaminidase release from RBL-2H3; assay: Inhibitory effect on beta-hexosaminidase release from RBL-2H3 (IgE/DNP-BSA); format: cell-based, rat
Method: The bioassay was conducted as reported by Abd Rani, et al.. In the concentration of 2 × 10^5 cells in 400 µL per well, RBL-2H3 cells were seeded and incubated for 2 h. After 2 h, the cells were sensitized with anti-DNP IgE at a concentration of 0.45 µg/mL in 100 µL per well. The cells were incubated overnight until 80% confluent. The cells were washed with 500 µL Siraganian buffer (119 mM of sodium chloride (NaCl), 5 mM of potassium chloride (KCl), 5.6 mM of glucose, 0.4 mM of magnesium chloride (MgCl2), 1 mM of calcium chloride (CaCl2), 25 mM of piperazine-N,N′-bis(2-ethanesulfonic acid) (PIPES), 40 mM of sodium hydroxide (NaOH), 0.1% BSA; pH 7.2) twice before were added with 160 µL of Siraganian buffer and incubated for 10 min. The cells were then treated with different concentrations of test samples in 20 µL. After 10 min of incubation, allergen, DNP-BSA at a concentration of 10 mg/mL were added to the cells. The cells were incubated for another 30 min. The supernatant (50 µL) was transferred into 96-well plates and was added immediately with 50 µL of the substrate ([…] p-nitrophenyl-N-acetyl-β-D-glucosaminide in 0.1 M citrate buffer, pH 4.5). The cells were further incubated for 1 h and the reaction was stopped using a 200 µL stop solution (0.1 M Na2CO3/NaHCO3, pH 10.0). The absorbance was measured using the microplate reader at 405 nm. The percentage of inhibition was measured using Equation (1). Control cell was assumed to have 100% beta-hexosaminidase release with allergen added without any treatment while the normal cell was assumed to have 0% beta-hexosaminidase release with cell without any allergen and treatment added to the well. The blank well consisted of the test sample. Ketotifen fumarate was used as a positive control. (1) Percentage inhibition % = (1− OD test sample−OD blank−OD normal/OD control−OD normal) × 100

[4] = target: T1, Histamine H1 (human) membrane preparation, in CHO-K1 cells (Homo sapiens, UniProt P35367); assay: Radioligand competition binding assay (3H-mepyramine); conditions: for Ki: read-out: Radioassay (Ki)
T1 construct: purchased Perkin Elmer (Waltham, MA, USA); host or cells: CHO-K1 cells (recombinant expression, membrane preparation)
T1 sequence (P35367 whole entry): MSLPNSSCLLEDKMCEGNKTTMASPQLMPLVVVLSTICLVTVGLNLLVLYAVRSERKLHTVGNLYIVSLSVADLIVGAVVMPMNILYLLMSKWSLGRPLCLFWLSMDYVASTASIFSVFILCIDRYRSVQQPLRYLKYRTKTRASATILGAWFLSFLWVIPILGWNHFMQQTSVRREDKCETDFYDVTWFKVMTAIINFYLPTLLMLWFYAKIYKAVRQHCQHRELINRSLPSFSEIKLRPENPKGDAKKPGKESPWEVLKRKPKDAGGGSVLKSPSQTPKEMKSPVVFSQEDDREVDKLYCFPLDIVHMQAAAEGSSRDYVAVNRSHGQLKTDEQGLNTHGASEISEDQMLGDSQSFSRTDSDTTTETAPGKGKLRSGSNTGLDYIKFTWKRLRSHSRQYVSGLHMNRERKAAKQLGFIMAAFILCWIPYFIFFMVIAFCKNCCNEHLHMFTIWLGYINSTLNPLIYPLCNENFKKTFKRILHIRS
Method: In determining the affinity of the ligands toward the receptor, competition radioligand binding was conducted. The assay was conducted by measuring the competition binding between a radioligand with a ligand. The concentration of the radioligand with the presence of the ligand and the receptor was determined by using a liquid scintillation counter. […] The Ki value which also known as the binding affinity of the ligand was determined using GraphPad Prism.
Pyrilamine (Mepyramine), [pyridinyl 5-3H], Membrane Target Systems: Histamine H1 (human) membrane preparation, in CHO-K1 cells, liquid scintillation cocktail (ULTIMA GOLD MV), pico pro vial, and glass fiber (GF) filter were obtained from Perkin Elmer (Waltham, MA, USA).
In preparation for bioassay analysis, 10 mg of test samples were dissolved in 1 mL of DMSO and were treated as the stock sample. […] The working test sample together with its stock sample were kept in 4 °C until further used.
The radioligand assay was conducted as reported by Strakhova and Esbenshade. […] The mixture was immediately added with 200 µL of histamine receptor membrane (5 µg protein/well). The mixture was incubated for an hour at room temperature while shaking on the shaker. After an hour incubation, the mixture was harvested on GF/B uni filter presoaked with 0.5% PEI for 3 min. The GF/B uni filter was rinsed a few times with a wash buffer before being dried for one and a half hours. Once the uni filter was dry, the punched filter was transferred to 4 mL pico pro vial and was soaked with 2 mL of liquid scintillation cocktail. The solution was vortexed for a few seconds before being quantified using the liquid scintillator. Ki value (nmol/L) was obtained by using Equation (3).

[5] = test system: histamine release from RBL-2H3; assay: Inhibitory effect on histamine release from RBL-2H3 (ELISA); format: cell-based; conditions: Rattus norvegicus, mean ± SEM, n = 3, read-out: Inhibitory activity towards histamine release
Method: The bioassay was conducted as reported by Shahari, et al. and Abd Rani, et al.. In 24-well plates, 2 × 10^5 of RBL-2H3 cells were seeded in 400 µL per well. The cells were sensitized with 0.45 µg/mL anti-DNP IgE in 100 µL after two hours of incubation. The cells were incubated overnight until reaching 80% confluency. The cells were washed twice with 500 µL of enriched media before being constituted with 320 µL enriched media. After 10 min of incubation, the cells were treated with 40 µL of different concentration of test compounds and was incubated for another 10 min. The cells were treated with 20 µL of allergen, DNP-BSA (10 mg/mL), and further being incubated for another 30 min. The supernatant obtained was transferred into a microcentrifuge tube, and centrifuged for 20 min at 1000× g at 8 °C. The supernatant was transferred to the Histamine ELISA kit and the histamine quantification was conducted based on the ELISA manufacturer protocol given. The percentage of inhibition was measured using Equation (2). The control cell was assumed to have 100% histamine release with allergen added without any treatment while blank well corresponded to 0% cytokine release. Ketotifen fumarate was used as a positive control. (2) Percentage inhibition % = (1− OD test sample−OD blank/OD control−OD blank) × 100

[6] = Rattus norvegicus, mean ± SEM, n = 3, read-out: Inhibitory activity towards beta-hexosaminidase release
[7] = pH 7.4, 1 h incubation, 3H-mepyramine

Ki [4, 7] | Compound | viability at 4 h, 2.5 µg/mL [1] [%] | viability at 4 h, 5 µg/mL [1] [%] | viability at 4 h, 10 µg/mL [1] [%] | viability at 4 h, 25 µg/mL [1] [%] | viability at 4 h, 50 µg/mL [1] [%] | viability at 4 h, 100 µg/mL [1] [%] | Toxicity towards the cell (in words) [2] | inhibition at 10 µg/mL [3, 6] [%] | inhibition at 25 µg/mL [3, 6] [%] | inhibition at 50 µg/mL [3, 6] [%] | Concentration safe on the cell [2] | Inhibition of beta-hexosaminidase release (in words) [3] | inhibition at 2.5 µg/mL [3, 6] [%] | inhibition at 5 µg/mL [3, 6] [%] | inhibition at 2.5 µg/mL [5] [%] | inhibition at 5 µg/mL [5] [%] | inhibition at 10 µg/mL [5] [%] | inhibition at 25 µg/mL [5] [%] | other results
0.04 nM | COC[C@@H]1Cc2cc(OC)c3c(c2[C@H](c2ccc(OC)c(OC)c2)[C@H]1COC)OCO3 [Hypophyllanthin (2), hypophyllanthin] | 93 ± 9.69 | 91 ± 10.4 | 114 ± 8.89 | 62.46 ± 0.56 | 40.6 ± 4.17 | 28.1 ± 4.13 |  |  |  |  | below 25 µg/mL | inhibited the release of beta-hexosaminidase | 32.3 ± 4.99 | 32.3 ± 4.51 | 11.9 ± 64.3 | 71.2 ± 34.7 |  |  | inhibition at 1.25 µg/mL ([3]; Rattus norvegicus, 1.25 µg/mL, mean ± SEM, n = 3, read-out: Inhibitory activity towards beta-hexosaminidase release): 23.9 ± 3.31%; inhibition at 1.25 µg/mL ([5]; 1.25 µg/mL): 16.4 ± 46.6%
0.44 nM and 0.444 nM | COC[C@H](Cc1ccc(OC)c(OC)c1)[C@H](COC)Cc1cc(OC)c2c(c1)OCO2 [Niranthin (3), niranthin] | 104 ± 5.79 | 79.4 ± 8.96 | 96.5 ± 7.33 | 85.4 ± 11.6 | 96.63 ± 0.63 | 86.3 ± 12.4 | not toxic towards the cell | 29.3 ± 5.81 | 31.3 ± 7.43 | 32.1 ± 7.27 |  | inhibited the release of beta-hexosaminidase |  |  |  | 34.7 ± 12.2 | 59 ± 22.2 | 41.2 ± 31.2 | 

Further lines, the compound ahead of its results:

Compound | Ki [4, 7] | viability at 4 h, 2.5 µg/mL [1] [%] | viability at 4 h, 5 µg/mL [1] [%] | viability at 4 h, 10 µg/mL [1] [%] | viability at 4 h, 25 µg/mL [1] [%] | viability at 4 h, 50 µg/mL [1] [%] | viability at 4 h, 100 µg/mL [1] [%] | Toxicity towards the cell (in words) [2] | inhibition at 10 µg/mL [3, 6] [%] | inhibition at 25 µg/mL [3, 6] [%] | inhibition at 50 µg/mL [3, 6] [%] | Concentration safe on the cell [2] | Inhibition of beta-hexosaminidase release (in words) [3] | inhibition at 2.5 µg/mL [3, 6] [%] | inhibition at 5 µg/mL [3, 6] [%] | inhibition at 2.5 µg/mL [5] [%] | inhibition at 5 µg/mL [5] [%] | inhibition at 10 µg/mL [5] [%] | inhibition at 25 µg/mL [5] [%] | other results
O=C(O[C@@H]1O[C@@H]2COC(=O)c3cc(O)c(O)c(O)c3-c3c(cc(O)c(O)c3O)C(=O)O[C@H]([C@H]1O)[C@@H]2O)c1cc(O)c(O)c(O)c1 [Corilagin (4), corilagin] |  | 87.1 ± 4.31 | 81.1 ± 14.8 | 93.7 ± 15.4 | 103 ± 12.1 | 104 ± 7.35 | 101 ± 7.2 | not toxic towards the cell | 2.43 ± 3.26 | 5.12 ± 2.09 | 6.68 ± 1.71 |  |  |  |  |  |  |  |  | Affinity towards the H1 receptor (in words) ([4]; competition radioligand assay): did not show any affinity towards the receptor; Radioassay (Ki) [4, 7]: Not converged
CN1CCC(=C2c3ccccc3CC(=O)c3sccc32)CC1 [Ketotifen fumarate, reference compound] |  | 91.9 ± 6.16 | 90.1 ± 3.89 | 86.8 ± 6.47 | 87.4 ± 1.17 | 83.8 ± 4.1 | 28.9 ± 4.87 |  | 22.2 ± 0.75 | 27.4 ± 0.58 |  | below 50 µg/mL |  |  | 17.7 ± 1.05 |  | 3.9 ± 6.8 | 44.7 ± 23 | 58.7 ± 23.2 | 
COC[C@@H](Cc1ccc(OC)c(OC)c1)[C@@H](COC)Cc1ccc(OC)c(OC)c1 [Phyllanthin (1), phyllanthin] |  | 92 ± 1.13 | 76.6 ± 3.77 | 84.3 ± 6.83 | 82.1 ± 4.03 | 74.2 ± 7.99 | 53.5 ± 0.65 |  | 38.4 ± 8.72 |  |  | below 50 µg/mL | inhibited the release of beta-hexosaminidase | 26.4 ± 3.18 | 37.9 ± 6.51 | -3.05 ± 7.93 | 55.8 ± 19.3 | -11.6 ± 70.8 |  | 
